Reference: EP4640686A1, “DEGRADER FOR DEGRADING BRD PROTEIN AND PHARMACEUTICAL COMPOSITION CONTAINING SAME” (Innocure Therapeutics, Inc., priority 2022, dated 2024)
Read-outs that look alike come from different tables or passages of the source.

Key:
Type in all cases: cell-based
[1] = test system: RPMI2650; assay: Cancer cell antiproliferative activity / cell viability in RPMI2650 cells (72 h treatment)
Experimental: The human breast cancer cell line [MDA-MB-231] was cultured in RPMI medium with the addition of 10% fetal bovine serum, penicillin [100U/ml], and streptomycin [[…]]. The synthesized compounds were prepared with a 10 mM or 50 mM raw material solution dissolved in DMSO [dimethyl sulfoxide], and were diluted sequentially and treated. [RPMI2650] and [SNU2972] were cultivated under specific conditions.
To observe cell growth inhibition, cells were dispensed in a concentration of 5,000 cells/well in a 96-well plate, and samples prepared at various concentrations were treated for 72 hours. The IC50 value (the concentration of the compound achieving 50% cytostaticism) is the average value of the results of three independent measurements.

[2] = target: T1, BRD4-NUT (Homo sapiens, UniProt O60885+Q86Y26); assay: BRD4-NUT protein degradation by western blotting in RPMI2650 cells (24 h treatment)
T1 construct: endogenous in cells; host or cells: RPMI2650
Experimental: (§1) The synthesized compounds were prepared with a 10 mM or 50 mM raw material solution dissolved in DMSO [dimethyl sulfoxide], and were diluted sequentially and treated. [RPMI2650] and [SNU2972] were cultivated under specific conditions.
(§2) To evaluate the resolution of PROTAC for BRD4 expressed in cells, cells were dispensed in a concentration of 5 X 10^5 cells/well in a 6-well plate, and the sample was treated for 24 hours. […] Protein expression was normalized based on the expression value of β or GAPDH, and protein expression in each sample was measured as % based on 100% of samples treated with 0.1% DMSO vehicle. Protein expression was quantified using Image J program. Change in protein expression volume by compound treatment (DC50: concentration of compounds where 50% protein expression inhibition is achieved) was calculated using the GraphicPad Prism 8.0 software.

[3] = target: BRD4 (Homo sapiens, UniProt O60885); assay: BRD4 protein degradation by western blotting in RPMI2650 cells (24 h treatment); design: To evaluate the resolution of PROTAC for BRD4 expressed in cells; endogenous in cells; host or cells: RPMI2650
Experimental: as §1, §2

[4] = Homo sapiens, RPMI-2650, RPM12650, read-out: Cell Viatility (IC50)
[5] = RPM12650, read-out: BRD4-NUT (DC50)
[6] = RPM12650, read-out: BRD4 (DC50)
[7] = read-out: BRD4-NUT (DC50), RPMI2650
[8] = read-out: BR04 (DC50), RPMI2650
[9] = RPM12650, read-out: Cell Viatility (IC50)
[10] = Homo sapiens, RPMI-2650, 72 h, RPM12650, read-out: Cell Viatility (IC50)

Row | DC50 [2, 7] [nM] | DC50 [3, 8] [nM] | IC50 [1, 10] [nM] | SMILES | IC50 [1, 4] [nM] | DC50 [2, 5] [nM] | DC50 [3, 6] [nM] | IC50 [1, 9] [nM]
1 | – | – | – | CC[C@@H]1c2nnc(C)n2-c2cnc(Nc3ccc(C(=O)N4CCN(c5ccc6c(=O)n(C7CCC(=O)NC7=O)ncc6c5)CC4)cc3OC)nc2N1CC1CCCCC1 (stereo partly shown) [ICT-0001577] | > 1000 | > 1000 | > 1000 | –
2 | – | – | – | CC[C@H]1c2nnc(C)n2-c2cnc(Nc3ccc(C(=O)N4CCN(c5ccc(NC6CCC(=O)N(C)C6=O)cc5F)CC4)c(OC)c3)nc2N1CC1CCCCC1 (stereo partly drawn) [ICT-0001554, 3-({4-[4-(4-{[(4S)-5-(cyclohexylmethyl)-4-ethyl-1-methyl-4H,5H-[1,2,4]triazolo[4,3-f]pteridine-7-yl]amino}-2-methoxybenzoyl)piperazine-1-yl]-3-fluorophenyl}amino)-1-methylpiperidine-2,6-dione] | > 1000 | > 1000 | > 1000 | –
3 | > 1000 | > 1000 | – | Cc1sc2c(c1C)C(c1ccc(Cl)cc1)=N[C@@H](CC(=O)Nc1ccc(OCCCCCc3ccc4c(=O)n(C5CCC(=O)NC5=O)ncc4c3)cc1)c1nnc(C)n1-2 (stereo partly drawn) [ICT-0001411, 2-[(9S)-7-(4-chlorophenyl)-4,5,13-trimethyl-3-thia-1,8,11,12-tetraazatricyclo[8.3.0.0^2,^6]trideca-2(6),4,7,10,12-pentaene-9-yl]-N-[4-({5-[2-(2,6-dioxopiperidin-3-yl)-1-oxo-1,2-dihydroptalazine-6-yl]pentyl}oxy)phenyl)acetamide] | – | – | – | –
4 | – | – | – | CC[C@@H]1c2nnc(C)n2-c2cnc(Nc3ccc(C(=O)N4CCN(CCNc5cccc6c(C)nn(C7CCC(=O)NC7=O)c(=O)c56)CC4)cc3OC)nc2N1CC1CCCCC1 (stereo partly drawn) [ICT-0001583, 3-(8-((2-(4-(4-(((R)-5-(cyclohexylmethyl)-4-ethyl-1-methyl-4,5-dihydro-[1,2,4]triazolo[4,3-f]pteridine-7-yl)amino)3-methoxybenzoyl)piperazine-1-yl)ethyl)amino)4-methyl-1-oxopthalazine-2(1H)-yl)piperidine-2,6-dione] | > 1000 | < 100 | < 100 | –
5 | – | – | – | CC[C@@H]1c2nnc(C)n2-c2cnc(Nc3ccc(C(=O)N4CCO[C@@H](CN5CCN(c6ccc7c(=O)n(C8CCC(=O)NC8=O)nc(C)c7c6)CC5)C4)cc3OC)nc2N1CC1CCCCC1 (stereo partly drawn) [ICT-0001548, 3-(6-(4-(((S)-4-(4-(((R)-5-(cyclohexylmethyl)-4-ethyl-1-methyl-4,5-dihydro-[1,2,4]triazolo[4,3-f]pteridine-7-yl)amino)3-methoxybenzoyl)morpholine-2-il)methyl)piperazine-1-yl)4-methyl-1-oxopthalazine-2(1H)-yl)piperidine-2,6-dione] | – | < 100 | < 100 | > 1000
6 | – | – | – | CCC1c2nnc(C)n2-c2cnc(Nc3ccc(C(=O)NC4CCN(CCN5CCN(c6ccc(NC7CCC(=O)NC7=O)cc6F)CC5)CC4)cc3OC)nc2N1CC1CCCCC1 [ICT-0001561, 4-{[(4S)-5-(cyclohexylmethyl)-4-ethyl-1-methyl-4H,5H-[1,2,4]triazolo[4,3-f]pteridine-7-yl]amino}-N-{1-[2-(4-{4-[(2,6-dioxopiperidin-3-yl)amino]-2-fluorophenyl}piperazine-1-il)ethyl]piperidine-4-yl}-3-methoxybenzamide] | > 1000 | < 100 | < 100 | –
7 | – | – | – | CC[C@@H]1c2nnc(C)n2-c2cnc(Nc3ccc(C(=O)N4CCN(CC5CCN(c6ccc(NC7CCC(=O)NC7=O)cc6F)CC5)CC4)cc3OC)nc2N1CC1CCCCC1 (stereo partly drawn) [ICT-0001518, 3-((4-(4-((4-(4-(((R)-5-(cyclohexylmethyl)-4-ethyl-1-methyl-4,5-dihydro-[1,2,4]triazolo[4,3-f]pteridine-7-yl)amino)3-methoxybenzoyl)piperazine-1-il)methyl)piperidine-1-yl)-3-fluorophenyl)amino)piperidine-2,6-dione] | 100 to 1000 | < 100 | < 100 | –
8 | – | – | > 1000 | CC[C@@H]1c2nnc(C)n2-c2cnc(Nc3ccc(C(=O)NC4CCN(c5ccc(NC6CCC(=O)NC6=O)cc5F)CC4)cc3OC)nc2N1CC1CCCCC1 (stereo partly drawn) [ICT-0001566, 4-{[(4R)-5-(cyclohexylmethyl)-4-ethyl-1-methyl-4H,5H-[1,2,4]triazolo[4,3-f]pteridine-7-yl]amino}-N-(1-{4-[(2,6-dioxopiperidine-3-yl)amino]-2-fluorophenyl}piperidine-4-yl)-3-methoxybenzamide] | – | < 100 | < 100 | –
9 | – | – | – | CC[C@@H]1c2nnc(C)n2-c2cnc(Nc3ccc(C(=O)NC4CCN(C(=O)C5CCN(c6ccc7c(C)nn(C8CCC(=O)NC8=O)c(=O)c7c6)CC5)CC4)cc3OC)nc2N1CC1CCCCC1 (stereo partly shown) [ICT-0001592] | < 100 | < 100 | < 100 | –
10 | – | – | – | CC[C@H]1c2nnc(C)n2-c2cnc(Nc3ccc(C(=O)NC4CCN(CCC5CCN(c6ccc(NC7CCC(=O)NC7=O)cc6F)CC5)CC4)cc3OC)nc2N1CC1CCCCC1 (stereo partly drawn) [ICT-0001564, 4-{[(4S)-5-(cyclohexylmethyl)-4-ethyl-1-methyl-4H,5H-[1,2,4]triazolo[4,3-f]pteridine-7-yl]amino}-N-{1-[2-(1-{4-[(2,6-dioxopiperidin-3-yl)amino]-2-fluorophenyl}piperidine-4-yl)ethyl]piperidine-4-yl}-3-methoxybenzamide] | – | > 1000 | < 100 | > 1000
11 | – | – | – | CC[C@@H]1c2nnc(C)n2-c2cnc(Nc3ccc(C(=O)N4CCN(c5ccc(NC6CCC(=O)NC6=O)cc5F)CC4)cc3OC)nc2N1CC1CCCCC1 (stereo partly shown) [ICT-0001517] | < 100 | < 100 | < 100 | –
12 | – | – | – | CC[C@@H]1c2nnc(C)n2-c2cnc(Nc3ccc(C(=O)N4CCN(CCNc5ccc6c(=O)n(C7CCC(=O)NC7=O)ncc6c5)CC4)cc3OC)nc2N1CC1CCCCC1 (stereo partly drawn) [ICT-0001603, 3-(6-((2-(4-(4-(((R)-5-(cyclohexylmethyl)-4-ethyl-1-methyl-4,5-dihydro-[1,2,4]triazolo[4,3-f]pteridine-7-yl)amino)3-methoxybenzoyl)piperazine-1-yl)ethyl)amino)1-oxopthalazine-2(1H)-yl)piperidine-2,6-dione] | > 1000 | < 100 | < 100 | –
13 | – | – | – | CC[C@@H]1c2nnc(C)n2-c2cnc(Nc3ccc(C(=O)N4CCN(c5cccc6c(C)nn(C7CCC(=O)NC7=O)c(=O)c56)CC4)cc3OC)nc2N1CC1CCCCC1 (stereo partly drawn) [ICT-0001584, 3-(8-(4-(4-(((R)-5-(cyclohexylmethyl)-4-ethyl-1-methyl-4,5-dihydro-[1,2,4]triazolo[4,3-f]pteridine-7-yl)amino)-3-methoxybenzoyl)piperazine-1-yl)-4-methyl-1-oxopthalazine-2(1H)-yl)piperidine-2,6-dione] | < 100 | < 100 | < 100 | –
14 | – | – | – | CC[C@@H]1c2nnc(C)n2-c2cnc(Nc3ccc(C(=O)NCCNc4cccc5cnn(C6CCC(=O)NC6=O)c(=O)c45)cc3OC)nc2N1CC1CCCCC1 (stereo partly drawn) [ICT-0001558, 4-(((R)-5-(cyclohexylmethyl)-4-ethyl-1-methyl-4,5-dihydro-[1,2,4]triazolo[4,3-f]pteridine-7-yl)amino)N-(2-((3-(2,6-dioxopiperidin-3-yl)4-oxo-3,4-dihydroptalazine-5-yl)amino)ethyl)-3-methoxybenzamide] | > 1000 | < 100 | < 100 | –
15 | – | – | > 1000 | CC[C@@H]1c2nnc(C)n2-c2cnc(Nc3ccc(C(=O)NC4CCN(C(=O)CCCCN5CCN(c6ccc(NC7CCC(=O)NC7=O)cc6F)CC5)CC4)cc3OC)nc2N1CC1CCCCC1 (stereo partly drawn) [ICT-0001571, 4-{[(4R)-5-(cyclohexylmethyl)-4-ethyl-1-methyl-4H,5H-[1,2,4]triazolo[4,3-f]pteridine-7-yl]amino}-N-{1-[5-(4-{4-[(2,6-dioxopiperidin-3-yl)amino]-2-fluorophenyl}piperazine-1-yl)pentanoyl]piperidine-4-yl}-3-methoxybenzamide] | – | > 1000 | > 1000 | –
16 | > 1000 | > 1000 | – | Cc1sc2c(c1C)C(c1ccc(Cl)cc1)=N[C@@H](CC(=O)Nc1ccc(OCCCC#Cc3ccc4c(=O)n(C5CCC(=O)NC5=O)ncc4c3)cc1)c1nnc(C)n1-2 (stereo partly drawn) [ICT-0001409, 2-[(9S)-7-(4-chlorophenyl)-4,5,13-trimethyl-3-thia-1,8,11,12-tetraazatricyclo[8.3.0.0^2,^6]trideca-2(6),4,7,10,12-pentaene-9-yl]-N-[4-({5-[2-(2,6-dioxopiperidin-3-yl)-1-oxo-1,2-dihydroptalazine-6-yl]pent-4-phosphorus-1-yl}oxy)phenyl]acetamide] | – | – | – | –
